Measurements published in patent EP0974351A2, “Medicament for preventing and treating gastrointestinal damage” (JOUVEINAL, priority 1998, dated 2000).

Experiments:
PGE2 = PGE2 content of gastric mucosa biopsies (ELISA) in indomethacin-treated rats; type: in vivo, Male CD-Sprague-Dawley rats; conditions: for effect on the inhibition of PGE2 caused by indomethacin: any dose tested (1-200 mg/kg orally)
Description: Male CD-Sprague-Dawley rats (132-202 g) were received and housed in a room with controlled temperature, humidity, and 12-hour light/dark cycle. After a period of acclimatization of 4 to 5 days, and after a 24-hour food fasting period, animals were used for the study described below.
Gabapentin or pregabalin (CI-1008) were dissolved in water and administered orally at the following doses: 1, 10, 100, and 200 mg/kg in a volume of 1 mL. Control animals were dosed with an equal volume of vehicle (1 mL of water). Sixty minutes later, all the animals received 1 mL of a solution of 80 mg/kg indomethacin dissolved in 5% aqueous NaHCO3. Control animals received 1 mL of 5% aqueous NaHCO3 orally. Experimental groups were as follows:
Animals were sacrificed by decapitation 4 hours post-indomethacin administration. The stomach was removed and opened along the greater curvature and its image digitized and stored on an optical disk using a 486-based PC computer equipped with CUE3 system imaging analysis software (Olympus Corp., Marietta, Georgia, USA). Two 6-mm biopsies were taken from a constant region of the gastric mucosa located in each side of the glandular portion of the stomach and their PGE2 content was measured using a commercially available ELISA kit (Assay Designs Inc., Ann Arbor, Michigan, USA). The presence of gastric damage was determined using the retrieved electronic image, and the extent of damage was measured using the CUE3 imaging software. Data are expressed as a percent of gastric area damaged and the PGE2 content (pg/mL).

[1] = test system: Colonic Threshold in Normal Rats; experiment: Colonic distension pain threshold in normal rats; type: in vivo, Male Sprague-Dawley rats; conditions: normal rats, control 43.33, NS vs control
Description: Male Sprague-Dawley rats weighing 340 to 400 g were used in the study. The animals were housed three per cage in a regulated environment (20 ± 1°C, 50 ± 5% humidity, with light 8:00 AM to 8:00 PM). Under anethesia (ketamine 80 mg/kg i.p.; acepromazin 12 mg/kg i.p.), TNBS (50 mg/kg), or saline (1.5 mL/kg) was injected into the proximal colon (1 cm from the cecum). After the surgery, animals were individually housed in the regulated environment.
A balloon catheter (5-6 cm length) was inserted through the anus into the colon and kept in position (tip of balloon 5 cm from the anus) by taping the catheter to the base of the tail. The balloon was progressively inflated by step of 5 mm Hg, from 0 to 75 mm Hg, each step of inflation lasting 30 seconds. Each cycle of colonic distension was controlled by a standard barostat. The threshold corresponds to the pressure which produced the first abdominal contraction, at which time the cycle of distension was discontinued. To determine the colonic threshold, four cycles of distension were performed on the same animal.
In a first series of experiments, a group of eight rats treated with saline were subjected to a colonic distension session.
All test compounds were dissolved in saline except TNBS. TNBS was dissolved in EtOH 30% (w/v). Subcutaneous injection of vehicle was given in a volume of […].
Statistical significance between each group was determined using a one-way ANOVA followed by Student's unpaired t-test. Differences were considered statistically significant at p <0.05.

[2] = test system: Inflammatory Colonic Pain Induced by Intramural Injection of Formalin 5%; experiment: Inflammatory colonic pain induced by intramural injection of formalin 5% in rats; type: in vivo, Adult female Sprague-Dawley rats; conditions: for % Antinociception: intracolonic formalin 5%, 50 µL/rat; for pain score induced by intracolonic formalin (in words): gabapentin 100, 300, 500 mg/kg sc, CI-1008 100, 200 mg/kg sc
Description: The GABA analogs were evaluated in another model to determine their effect on inflammatory visceral pain.
Administration of formalin into the wall of the rat colon causes acute inflammation and visceral pain. The aim of this study was to evaluate the antinociceptive activity of gabapentin and CI-1008 in visceral pain induced by colonic intrapariental injection of formalin.
Adult female Sprague-Dawley rats weighing 240 to 260 g were used in the study. The animals were housed three per cage in a regulated environment (20 ± 1°C 50 ± 5% humidity, with light 8:00 AM to 8:00 PM) prior to use in the test.
Each test animal was placed in a transparent plastic cage (27 x 43 x 25 cm) with a layer of wood shavings on the floor. Drinking water was available. Cages were placed in such a way that visual interaction between animals was avoided. A mirror was positioned behind each cage to improve the recording of behaviors. Each animal was initially allowed 20 minutes to get used to its surroundings. Anesthesia was then achieved by using isofurane (starting 4%, then 1.5% in a mixture of […] nitrous oxide and 1:3 oxygen). The animal was suspended by its tail, the rectum was gently emptied with a cotton-capped stalk, and a coloscope was inserted through the anus. This designed endoscope has a lateral slot that allows for puncture of the intestinal wall under visual control, using a 51-mm-long needle (26 ga), at about 35 mm from the anal margin. Injected solutions were either 50 µL 5% formalin, or the same volume of isotonic saline. Animals were allowed to recover from anesthesia as soon as the injection was completed (about 1 minute), and the observation period was started and continued for 2 hours. Thirty minutes after the end of the observation test, an IV injection of Evans Blue (1%) was administered, and 30 minutes later the animal was sacrificed. The abdomen was opened. The injection site and the zone of diffusion of Evans Blue were recorded by image analysis software. Data from rats in which the spread of the dye was not restricted to the sigmoid wall were discarded.
As listed in increasing order of pain intensity, these behaviors were: (i) abdominal licking and nibbling (L), (ii) body stretching, i.e., backward extension of the hind limbs (B), (iii) contraction of the flanks, sometimes evolving to a stretching attitude (C), and (iv) whole body contraction, the rat standing with its back curved, occasionally further graded according to the duration of the given episode: W1 for less than 30 seconds, W2 between 30 seconds and 1 minute, and W3 for more than 1 minute. Behaviors were recorded for each animal throughout the 2-hour test on individual charts. A pain score (S) was then calculated for each of the successive 15-minute periods, using the following formula: S = 1L + 2B + 3C + 4W1 + 5W2 + 6W3 [formula] whereby the pain score was proportional to (i) the number of episodes of each selected behavior, and (ii) the coefficient, from 1 to 6, attributed to the given behaviors.
All compounds were dissolved in saline. Subcutaneous injection of vehicle was given in a volume of […]. Formalin was purchased from Prolabo.
Statistical significance between each group was determined by using a one-way ANOVA followed by Student's unpaired t-test. Differences were considered statistically significant at p <0.05.
Hyperalgesia is induced by intramural injection of formalin (5%, 50 µL/rat) into the colonic wall in unfasted female Sprague-Dawley rats. Gabapentin and CI-1008 were tested at 100, 300, 500 and 100, 200 mg/kg sc, respectively. […] The maximal inhibitory effect was observed after 500 mg/kg of gabapentin and 200 mg/kg of CI-1008.

[3] = 1 mg/kg orally before indomethacin 80 mg/kg, control 9525.27 ± 156.00, indomethacin + vehicle 1908.03 ± 72.31
[4] = 10 mg/kg orally before indomethacin 80 mg/kg, indomethacin + vehicle 1908.03 ± 72.31
[5] = 100 mg/kg orally before indomethacin 80 mg/kg, indomethacin + vehicle 1908.03 ± 72.31
[6] = 200 mg/kg orally before indomethacin 80 mg/kg, indomethacin + vehicle 1908.03 ± 72.31

Structure (SMILES)	PGE2 Synthesis (PGE2; [3])	PGE2 Synthesis (PGE2; [4])	PGE2 Synthesis (PGE2; [5])	PGE2 Synthesis (PGE2; [6])	effect on the inhibition of PGE2 caused by indomethacin (PGE2)	Colonic Threshold ([1]; 200 mg/kg sc)	% Antinociception ([2]; 100 mg/kg sc)	% Antinociception ([2]; 200 mg/kg sc)	pain score induced by intracolonic formalin (in words) [2]	Colonic Threshold ([1]; 500 mg/kg sc)	% Antinociception ([2]; 0.3 mg/kg sc (so in the source))	% Antinociception ([2]; 300 mg/kg sc)	% Antinociception ([2]; 500 mg/kg sc)
CC(C)C[C@H](CN)CC(=O)O [CI-1008, (S)-3-(aminomethyl)-5-methylhexanoic acid]	1209.95 ± 105.50 pg/mL	2666.16 ± 307.45 pg/mL	3994.45 ± 318.95 pg/mL	3288.92 ± 407.43 pg/mL	Neither gabapentin nor CI-1008, at any dose tested, were able to significantly modify this effect	46.41 mm Hg	18.55%	70.81%	significantly and dose-dependently decreased	–	–	–	–
NCC1(CC(=O)O)CCCCC1 [Gabapentin, 1-(aminomethyl)-cyclohexane acetic acid]	1783.66 ± 73.47 pg/mL	3065.78 ± 137.19 pg/mL	2997.90 ± 226.80 pg/mL	2615.74 ± 165.36 pg/mL	Neither gabapentin nor CI-1008, at any dose tested, were able to significantly modify this effect	–	13.62%	–	significantly and dose-dependently decreased	43.75 mm Hg	-7.73%	55.07%	88.01%
